Assay results published in PMC9918898, “Bioactive Clerodane Diterpenoids from the Leaves of Casearia coriacea Vent” (Molecules, 2023).
Converted amounts (≈) assume the structure as drawn. “And” between values parts separate entries of the source, which are not always exact repeats. Equal values may be shown once. Read-outs that look alike come from different tables or passages of the source.

Tests used:
[1] = system: zebrafish; design: method as in PMID 21738604; conditions: cited from earlier work
[2] = system: Trypanosoma brucei brucei; assay: Antitrypanosomal assay (AlamarBlue); format: cell-based
Procedure: (§1) A continuous in vitro culture of asexual erythrocyte stages of P. falciparum, chloroquine-sensitive strain 3D7 (ATCC), was maintained following the procedure of Trager and Jensen. Antiplasmodial activity tests were conducted as previously described by the determination of lactate deshydrogenase activity. IC50 was calculated from graphs (GraphPad Prism). T. brucei strain 427 (Molteno Institute in Cambridge, UK) and L. mexicana mexicana (MHOM/BZ/84/BEL46 from Pr. P.A.M Michels of De Duve Institue, UCLouvain) were maintained following the procedure previously described by the team of Pr. Quetin-Leclercq. Antileshmanial and antitrypanosomal assays were conducted as previously described, using the AlamarBlue assay.

[3] = Hemolysis; format: cell-based
[4] = system: Leishmania mexicana mexicana; assay: Antileishmanial assay (AlamarBlue); format: cell-based
Procedure: as §1

[5] = system: P. falciparum 3D7; assay: Antiplasmodial activity, lactate dehydrogenase assay; format: cell-based; conditions: Plasmodium falciparum
Procedure: as §1

[6] = system: A549 cells; assay: In vitro cytotoxic activity (Prestoblue); format: cell-based, human; conditions: towards Plasmodium
Procedure: (§2) Assays were performed on different human cancer cell lines (MDA-MB-231, PANC-1, and A549 cells obtained from ATCC) to evaluate the cytotoxicity potential of the compounds 1–3, and the crude extract. Cells were grown in high-glucose Dulbecco’s modified Eagle Medium (DMEM, Gibco) supplemented with glutamine (2 mM), penicillin (50 IU/mL), streptomycin (0.5 mg/mL), sodium pyruvate (0.5 mM), and 10% FBS (Foetal Bovine Serum) at 37 °C with 5% CO2 in the air. Compounds were tested in 96-well microplates using the Prestoblue® colorimetric assay for cell viability based on the reduction of resazurin in resorufin as previously described. Briefly, 2500 cells were seeded per well in 100 µL of medium supplemented with adequate concentrations of the tested drugs. After 72 h of drug exposure, 75 µL of diluted solution of Prestoblue reagent were added to each well, and the plate was incubated in the dark for 2 h at 37 °C. Any changes in cell viability were detected using fluorescence spectroscopy. The fluorescence of resorufin was measured using a SpectraMax i3 plate reader (Molecular Devices™) with excitation and emission wavelengths set at 560 nm and 590 nm, respectively. The cell viability was expressed as a percentage relative to control-vehicle-treated cells (DMSO 0.1%). IC50 values were calculated from graphs based on a regression line in which the resorufin fluorescence values were plotted against the logarithm of drug concentration.

[7] = system: MDA-MB-231 cells; assay: In vitro cytotoxic activity (Prestoblue); format: cell-based, human; conditions: towards Plasmodium
Procedure: as §2

[8] = system: PANC-1 cells; assay: In vitro cytotoxic activity (Prestoblue); format: cell-based, human; conditions: towards Plasmodium
Procedure: as §2

[9] = system: zebrafish embryos; assay: Zebrafish embryos acute toxicity test; format: in vivo, Danio rerio
Procedure: (§3) Adult zebrafish (Danio rerio) were maintained, fulfilling the criteria of the Ethical Committee for the Use of Laboratory Animals at the University of Liège. They were maintained at 28 °C over a period of 14 h day/10 h night, and fertilized eggs were collected, washed with sterile water, and placed in Petri dishes. The embryos were collected, and their chorions were not removed at 24 hpf. Compound 1 was dissolved in DMSO (the maximum final concentration of DMSO was 0.4%). Twenty embryos were used per condition in a 6-well plate. Each well contained 5 mL of the treatment dose (compound 1 or DMSO 0.4%), which was replaced daily for three days. The embryos were observed under a binocular microscope daily until 72 hpf (hours post fertilization).

[10] = Zebrafish embryos acute toxicity test; format: in vivo, Danio rerio; conditions: zebrafish (Danio rerio), in vivo, other: immersion of embryos in treatment solution in wells; zebrafish embryos
Procedure: as §3

[11] = n = 3, mean ± SD, read-out: Trypanosoma IC50 (converted)
[12] = n = 3, mean ± SD, read-out: Leishmania IC50 (converted)
[13] = 3D7, n = 3, mean ± SD, read-out: P. falciparum 3D7 IC50 (converted)

CC(=O)Nc1ccc(O)cc1 [paracetamol]
lethal dose 50 (LC50) [1]: 535.8 ± 17.1 µg/mL

C=CC(=C)CC[C@]1(C)[C@H]2C[C@H](OC(=O)C(C)CC)C=C3[C@H](OC(C)=O)O[C@H](OC(C)=O)[C@@]32[C@H](O)C[C@@H]1C (relative stereo) [Compound 3, rel-(2S,5R,6R,8S,9S,10R,18S,19R)-18,19-epoxy-18,19-diacetoxy-6-hydroxy-2-(2-methylbutanoyloxy)cleroda-3,13(16),14-triene]
IC50 [2, 11]: 3.03 µg/mL and 5.85 µM
hemolysis [3]: < 1%
IC50 [4, 12]: 26 µg/mL and 50.3 µM
IC50 [5, 13]: 0.51 µg/mL and 980 nM

Cc1ccc(C(=O)Nc2ccc(S(=O)(=O)O)c3cc(S(=O)(=O)O)cc(S(=O)(=O)O)c23)cc1NC(=O)c1cccc(NC(=O)Nc2cccc(C(=O)Nc3cc(C(=O)Nc4ccc(S(=O)(=O)O)c5cc(S(=O)(=O)O)cc(S(=O)(=O)O)c45)ccc3C)c2)c1 [Suramine, reference compound]
IC50 [2, 11]: 0.05 µg/mL and 40 nM

C[C@@H]1CC[C@H]2[C@@H](C)C(=O)O[C@@H]3O[C@@]4(C)CC[C@@H]1[C@]32OO4 [Artemisinin, reference compound]
IC50 [5, 13]: 0.004 ± 0.001 µg/mL (≈ 0.0142 µM)

C=CC(=C)CC[C@]1(C)[C@H]2C[C@H](OC(=O)C(C)C)C=C3[C@H](OC(C)=O)O[C@H](OC(C)=O)[C@@]32[C@H](O)C[C@@H]1C [Compound 2, corymbulosine I]
IC50 [2, 11]: 3 µg/mL and 5.95 µM
hemolysis ([3]; red blood cells, read-out: Hemolysis): < 1%
IC50 [4, 12]: 10.3 µg/mL and 20.4 µM
IC50 [5, 13]: 0.4 µg/mL and 790 nM

C=CC(=C)CC[C@]1(C)[C@H]2C[C@H](OC(=O)CCC)C=C3[C@H](OC(C)=O)O[C@H](OC(C)=O)[C@@]32[C@H](O)C[C@@H]1C [Compound 1, caseamembrin T]
IC50 ([2]; read-out: Trypanosoma IC50): 3.08 µg/mL and 6.11 µM
hemolysis [3]: < 1%
IC50 [4, 12]: 26.1 µg/mL and 51.7 µM
IC50 ([5]; 3D7, read-out: P. falciparum 3D7 IC50): 0.25 µg/mL and 490 nM
selectivity index against A549 [6]: 6.5
selectivity index against MDA-MB-231 [7]: 5.4
selectivity index against PANC-1 [8]: 3
embryos alive ([9]; 5 µg/mL, 48 hpf): 20%
state of embryos ([9]; 5 µg/mL, 72 hpf): lifeless
lethality ([9]; concentrations higher than 5 µg/mL): lethal for all embryos
mortality and morphological change ([9]; up to a concentration of 1 µg/mL): neither mortality nor morphological change were observed
LC50 at 3 days [10]: 1 to 5 µg/mL (≈ 1.98 to 9.91 µM)

N=C(N)c1ccc(OCCCCCOc2ccc(C(=N)N)cc2)cc1 [Pentamidine, reference compound]
IC50 ([4]; read-out: Leishmania IC50): 0.02 µg/mL and 60 nM

C[C@H]1O[C@@H](O[C@H]2[C@@H](O)C[C@H](O[C@H]3[C@@H](O)C[C@H](O[C@H]4CC[C@@]5(C)[C@H](CC[C@@H]6[C@@H]5C[C@@H](O)[C@]5(C)[C@@H](C7=CC(=O)OC7)CC[C@]65O)C4)O[C@@H]3C)O[C@@H]2C)C[C@H](O)[C@@H]1O [digoxin]
lethal dose 50 (LC50) [1]: 0.5 ± 0.006 µg/mL

CN1CCC[C@H]1c1cccnc1 [nicotine]
lethal dose 50 (LC50) [1]: 35.1 ± 0.5 µg/mL
